# Source: ChEMBL document CHEMBL3885861, “Open TG-GATES”
# Species: Rattus norvegicus
# Test: Open TG-GATES - Regimen: Daily Repeat
# Assay type: toxicity, organism-based, Sprague-Dawley
# Set-up: regimen Daily Repeat, gender Male, age 6 weeks
# Conditions: in vivo, po, 0 mg/kg, route gavage, dose level Control; for KIDNEY_L / KIDNEY_R / KIDNEY_TOTAL: tissue Kidney; for ALP / ALT / AST / BUN / CRE / Ca / Cl / DBIL / GLC / IP / K / LDH / Na / PL / RALB / TBIL / TC / TG / TP / gamma-GTP: tissue Plasma
structure (smiles),measurement,setting,value
CC(=O)Oc1ccccc1C(=O)O [ASPIRIN],TERMINAL_BW,"72 h, time 3 day",238.8 g
same,APTT,"72 h, tissue Blood, time 3 day",19.3 s
same,Bas,"72 h, tissue Blood, time 3 day",0%
same,Eos,"72 h, tissue Blood, time 3 day",1%
same,Fbg,"72 h, tissue Blood, time 3 day",216.6 mg/dL
same,Hb,"72 h, tissue Blood, time 3 day",13.1 g/dL
same,Ht,"72 h, tissue Blood, time 3 day",38.5%
same,Lym,"72 h, tissue Blood, time 3 day",82%
same,MCH,"72 h, tissue Blood, time 3 day",21.2 pg
same,MCHC,"72 h, tissue Blood, time 3 day",34.2%
same,MCV,"72 h, tissue Blood, time 3 day",62.1 fL
same,Mono,"72 h, tissue Blood, time 3 day",2.4%
same,Neu,"72 h, tissue Blood, time 3 day",13.4%
same,Plat,"72 h, tissue Blood, time 3 day",121.3 x10_4/uL
same,RBC,"72 h, tissue Blood, time 3 day",620 x10_4/ul
same,Ret,"72 h, tissue Blood, time 3 day",5.9%
same,WBC,"72 h, tissue Blood, time 3 day",98.5 x10_2/uL
same,KIDNEY_L,"72 h, time 3 day",1.1 g
same,KIDNEY_R,"72 h, time 3 day",1.1 g
same,KIDNEY_TOTAL,"72 h, time 3 day",2.1 g
same,ALP,"72 h, time 3 day",970.4 IU/L
same,ALT,"72 h, time 3 day",35.6 IU/L
same,AST,"72 h, time 3 day",73.2 IU/L
same,BUN,"72 h, time 3 day",14.8 mg/dL
same,CRE,"72 h, time 3 day",0.4 mg/dL
same,Ca,"72 h, time 3 day",10.8 mg/dL
same,Cl,"72 h, time 3 day",102.2 meq/L
same,DBIL,"72 h, time 3 day",0.082 mg/dL
same,GLC,"72 h, time 3 day",203.2 mg/dL
same,IP,"72 h, time 3 day",7.1 mg/dL
same,K,"72 h, time 3 day",3.9 meq/L
same,LDH,"72 h, time 3 day",223 IU/L
same,Na,"72 h, time 3 day",140.4 meq/L
same,PL,"72 h, time 3 day",148.8 mg/dL
same,RALB,"72 h, time 3 day",3.4 g/dL
same,TBIL,"72 h, time 3 day",0.1 mg/dL
same,TC,"72 h, time 3 day",74.6 mg/dL
same,TG,"72 h, time 3 day",99.2 mg/dL
same,TP,"72 h, time 3 day",5.7 g/dL
same,gamma-GTP,"72 h, time 3 day",1 IU/L
same,TERMINAL_BW,"[…], time 7 day",272.8 g
same,TERMINAL_BW,"[…], time 14 day",324.4 g
same,TERMINAL_BW,"[…], time 28 day",389.9 g
same,APTT,"[…], tissue Blood, time 7 day",21.2 s
same,Bas,"[…], tissue Blood, time 7 day",0%
same,Eos,"[…], tissue Blood, time 7 day",1%
same,Fbg,"[…], tissue Blood, time 7 day",211.2 mg/dL
same,Hb,"[…], tissue Blood, time 7 day",13.7 g/dL
same,Ht,"[…], tissue Blood, time 7 day",40.3%
same,Lym,"[…], tissue Blood, time 7 day",85.6%
same,MCH,"[…], tissue Blood, time 7 day",21.1 pg
same,MCHC,"[…], tissue Blood, time 7 day",34%
same,MCV,"[…], tissue Blood, time 7 day",62.1 fL
same,Mono,"[…], tissue Blood, time 7 day",2%
same,Neu,"[…], tissue Blood, time 7 day",11%
same,Plat,"[…], tissue Blood, time 7 day",128.4 x10_4/uL
same,RBC,"[…], tissue Blood, time 7 day",648.4 x10_4/ul
same,Ret,"[…], tissue Blood, time 7 day",5.3%
same,WBC,"[…], tissue Blood, time 7 day",135.5 x10_2/uL
same,APTT,"[…], tissue Blood, time 14 day",20.2 s
same,Bas,"[…], tissue Blood, time 14 day",0%
same,Eos,"[…], tissue Blood, time 14 day",0.8%
same,Fbg,"[…], tissue Blood, time 14 day",216.8 mg/dL
same,Hb,"[…], tissue Blood, time 14 day",14.2 g/dL
same,Ht,"[…], tissue Blood, time 14 day",40.6%
same,Lym,"[…], tissue Blood, time 14 day",82.6%
same,MCH,"[…], tissue Blood, time 14 day",20.8 pg
same,MCHC,"[…], tissue Blood, time 14 day",34.9%
same,MCV,"[…], tissue Blood, time 14 day",59.6 fL
same,Mono,"[…], tissue Blood, time 14 day",2%
same,Neu,"[…], tissue Blood, time 14 day",13.4%
same,RBC,"[…], tissue Blood, time 14 day",681.6 x10_4/ul
same,Ret,"[…], tissue Blood, time 14 day",3.4%
same,WBC,"[…], tissue Blood, time 14 day",134.5 x10_2/uL
same,APTT,"[…], tissue Blood, time 28 day",21.5 s
same,Bas,"[…], tissue Blood, time 28 day",0%
same,Eos,"[…], tissue Blood, time 28 day",1%
same,Fbg,"[…], tissue Blood, time 28 day",210.8 mg/dL
same,Hb,"[…], tissue Blood, time 28 day",15.7 g/dL
same,Ht,"[…], tissue Blood, time 28 day",45.3%
same,Lym,"[…], tissue Blood, time 28 day",81.8%
same,MCH,"[…], tissue Blood, time 28 day",19.3 pg
same,MCHC,"[…], tissue Blood, time 28 day",34.7%
same,MCV,"[…], tissue Blood, time 28 day",55.6 fL
same,Mono,"[…], tissue Blood, time 28 day",2%
same,Neu,"[…], tissue Blood, time 28 day",13.8%
same,PT,"[…], tissue Blood, time 28 day",12.6 s
same,Plat,"[…], tissue Blood, time 28 day",116.7 x10_4/uL
same,RBC,"[…], tissue Blood, time 28 day",815.4 x10_4/ul
same,Ret,"[…], tissue Blood, time 28 day",1.8%
same,WBC,"[…], tissue Blood, time 28 day",109 x10_2/uL
same,KIDNEY_L,"[…], time 7 day",1.2 g
same,KIDNEY_R,"[…], time 7 day",1.2 g
same,KIDNEY_TOTAL,"[…], time 7 day",2.3 g
same,KIDNEY_L,"[…], time 14 day",1.3 g
same,KIDNEY_R,"[…], time 14 day",1.3 g
same,KIDNEY_TOTAL,"[…], time 14 day",2.5 g
same,KIDNEY_L,"[…], time 28 day",1.4 g
same,KIDNEY_R,"[…], time 28 day",1.4 g
same,KIDNEY_TOTAL,"[…], time 28 day",2.8 g
same,ALP,"[…], time 7 day",844.4 IU/L
same,ALT,"[…], time 7 day",29.2 IU/L
same,AST,"[…], time 7 day",59.2 IU/L
same,BUN,"[…], time 7 day",15.8 mg/dL
same,CRE,"[…], time 7 day",0.4 mg/dL
same,Ca,"[…], time 7 day",10.7 mg/dL
same,Cl,"[…], time 7 day",102.4 meq/L
same,DBIL,"[…], time 7 day",0.096 mg/dL
same,GLC,"[…], time 7 day",210.8 mg/dL
same,IP,"[…], time 7 day",7.6 mg/dL
same,K,"[…], time 7 day",3.6 meq/L
same,LDH,"[…], time 7 day",178.2 IU/L
same,Na,"[…], time 7 day",141 meq/L
same,PL,"[…], time 7 day",137.4 mg/dL
same,RALB,"[…], time 7 day",3.4 g/dL
same,TBIL,"[…], time 7 day",0.1 mg/dL
same,TC,"[…], time 7 day",66.4 mg/dL
same,TG,"[…], time 7 day",100.2 mg/dL
same,TP,"[…], time 7 day",5.5 g/dL
same,gamma-GTP,"[…], time 7 day",0.6 IU/L
same,ALP,"[…], time 14 day",726.8 IU/L
same,ALT,"[…], time 14 day",33.4 IU/L
same,AST,"[…], time 14 day",62.2 IU/L
same,BUN,"[…], time 14 day",17.8 mg/dL
same,CRE,"[…], time 14 day",0.4 mg/dL
same,Ca,"[…], time 14 day",10.8 mg/dL
same,Cl,"[…], time 14 day",103 meq/L
same,DBIL,"[…], time 14 day",0.1 mg/dL
same,GLC,"[…], time 14 day",193.6 mg/dL
same,IP,"[…], time 14 day",7.2 mg/dL
same,K,"[…], time 14 day",3.9 meq/L
same,LDH,"[…], time 14 day",220.2 IU/L
same,Na,"[…], time 14 day",141 meq/L
same,PL,"[…], time 14 day",151.2 mg/dL
same,RALB,"[…], time 14 day",3.3 g/dL
same,TBIL,"[…], time 14 day",0.1 mg/dL
same,TC,"[…], time 14 day",67.8 mg/dL
same,TG,"[…], time 14 day",152.8 mg/dL
same,TP,"[…], time 14 day",5.8 g/dL
same,gamma-GTP,"[…], time 14 day",1 IU/L
same,ALP,"[…], time 28 day",605.4 IU/L
same,ALT,"[…], time 28 day",33.2 IU/L
same,AST,"[…], time 28 day",60.8 IU/L
same,BUN,"[…], time 28 day",17 mg/dL
same,CRE,"[…], time 28 day",0.5 mg/dL
same,Ca,"[…], time 28 day",10.1 mg/dL
same,Cl,"[…], time 28 day",103.2 meq/L
same,DBIL,"[…], time 28 day",0.1 mg/dL
same,GLC,"[…], time 28 day",213 mg/dL
same,IP,"[…], time 28 day",6.3 mg/dL
same,K,"[…], time 28 day",3.7 meq/L
same,LDH,"[…], time 28 day",150 IU/L
same,Na,"[…], time 28 day",141 meq/L
same,PL,"[…], time 28 day",132.4 mg/dL
same,RALB,"[…], time 28 day",3.4 g/dL
same,TBIL,"[…], time 28 day",0.2 mg/dL
same,TC,"[…], time 28 day",65.4 mg/dL
same,TG,"[…], time 28 day",111.6 mg/dL
same,TP,"[…], time 28 day",6 g/dL
same,gamma-GTP,"[…], time 28 day",1.2 IU/L
